Experimental data: ChEMBL document CHEMBL1156829 (Proc Natl Acad Sci U S A, 2008)

Assays:
Plasmodium falciparum [1] = test: NOVARTIS: Inhibition of Plasmodium falciparum 3D7 (drug-susceptible) proliferation in erythrocyte-based infection assay; format: functional, organism-based; conditions: Plasmodium falciparum, 3D7
[2] = NOVARTIS: Cytotoxicity against human hepatocellular carcinoma cell line (Huh7); format: toxicity, cell-based, Huh-7; conditions: Huh7 cells (hepatocellular carcinoma cell line)
Plasmodium falciparum [3] = test: NOVARTIS: Inhibition of Plasmodium falciparum W2 (drug-resistant) proliferation in erythrocyte-based infection assay; format: functional, organism-based; conditions: Plasmodium falciparum, W2; read-out: EC50

Row | SMILES | EC50 (Plasmodium falciparum [1]) | CC50 [2] | EC50 (Plasmodium falciparum [3])
1 | CCc1ccc2[nH]c(=O)c(CN(Cc3ccc(OC)cc3)C(=S)NCCCN(CC)CC)cc2c1 | 3460 nM | 18200 nM | 554 nM
2 | CCC(C)NC(=O)c1c[nH]c2ccc(S(=O)(=O)N3CCc4ccccc43)cc2c1=O (centres undefined) | > 1250 nM | > 10000 nM | 424 nM
3 | COc1cc(-c2nc(-c3cccc(Cl)c3)c(-c3ccccc3)[nH]2)cc(OC)c1O | 583 nM | 43200 nM | 749 nM
4 | Cn1c(C(OCC(=O)N2CCN(Cc3ccccc3)CC2)c2cccnc2)cc2ccccc21 (centres undefined) | 2250 nM | 38100 nM | 1100 nM
5 | CCOC(=O)Cn1cnc2c(nnn2Cc2ccc(F)cc2)c1=O | 380 nM | > 1700 nM | 160 nM
6 | C=CCCC(=O)N1CCC(C(=O)Nc2ccc(-c3nc4ccccc4o3)cc2)CC1 | 5420 nM | > 100000 nM | 1520 nM
7 | CCOC(=O)c1sc(NC(=O)CSc2nnc(CNC(=O)COc3ccc(Cl)cc3)n2C)c(C(=O)OCC)c1C | 1080 nM | > 10000 nM | > 601 nM
8 | COc1cc2c(cc1OC)C1=NC(=O)C(C(C)C)N1C(SCc1csc(Cl)n1)=N2 (centres undefined) | > 1420 nM | 14300 nM | 31.6 nM
9 | Cc1cc(-c2ccc(O)c(CN3CCCCC3CO)c2)c2ccccc2n1 (centres undefined) | 361 nM | 59100 nM | 57.7 nM
10 | O=C(c1cccs1)N1CCN(c2ccccn2)CC1 | 2020 nM | > 10000 nM | > 1560 nM
11 | CCOC(=O)c1c(NC(=O)CSc2nnc(CNC(=O)c3cccc(C)c3)n2-c2cccc(C)c2)sc2c1CCC2 | > 1600 nM | > 10000 nM | > 1190 nM
12 | Cc1ccc(NC(=O)c2cc(C(=O)c3cc(Cl)ccc3O)cn(-c3ccc(C)c(C)c3)c2=O)cc1C | 8070 nM | > 100000 nM | 6900 nM
13 | Oc1cccc(Nc2nc(NCc3ccco3)c3ccccc3n2)c1 | 275 nM | 11500 nM | 279 nM
14 | Cc1ccc(Cn2c(N3CCC(C(=O)NCc4ccc(F)cc4)CC3)nc3ccccc32)cc1 | > 7510 nM | > 100000 nM | 3180 nM
15 | Cc1ccc(-c2cc(C(F)(F)F)n3ncc(C(=O)Nc4cc(Cl)ccc4O)c3n2)cc1 | 1880 nM | > 100000 nM | 1430 nM
16 | COc1ccc(/C=C\c2cc[n+](C)cc2)cc1OC | 1110 nM | > 10000 nM | > 1250 nM
17 | CCOc1ccc2nc(C)c(CN(C)Cc3ccccc3)c(O)c2c1 | > 1250 nM | > 10000 nM | 969 nM

Row | SMILES | EC50 (Plasmodium falciparum [1]) | CC50 [2] | EC50 (Plasmodium falciparum [3])
18 | CCCN(C(=O)C(=O)Nc1ccc2nc3n(c(=O)c2c1)CCCCC3)c1ccc(OCC)cc1 | 89.9 nM | > 100000 nM | 50.1 nM
19 | CCOC(=O)C1=C(C)N=c2sc(=Cc3cc(Br)ccc3O)c(=O)n2C1c1ccc(OC)c(OC)c1 (centres undefined) | 2100 nM | > 100000 nM | 814 nM
20 | Brc1ccc2ncnc(NCC3CCCO3)c2c1 (centres undefined) | > 12500 nM | > 100000 nM | 3750 nM
21 | Cc1ccc2[nH]c(C)c(Br)c(=O)c2c1 | 1240 nM | > 100000 nM | 884 nM
22 | CC(=O)N(C1=C(N2CCOCC2)C(=O)c2ccccc2C1=O)c1ccc(Br)cc1 | 239 nM | 19100 nM | 200 nM
23 | Cc1ccc(-c2cc3c(nn2)-c2ccccc2C3=O)cc1 | 2000 nM | 83200 nM | 799 nM
24 | Cc1cc(CNC(=O)CC2C(=O)NCCN2Cc2ccccc2C(F)(F)F)nn1C (centres undefined) | > 27.4 nM | > 10000 nM | > 1250 nM
25 | O=C(NC(=C(Cl)Cl)[P+](c1ccccc1)(c1ccccc1)c1ccccc1)c1ccc(F)cc1 | 954 nM | 1740 nM | 171 nM
26 | COc1ccc(C(Cc2ccccc2)NC2CN3CCC2CC3)cc1 (centres undefined) | 4260 nM | > 65000 nM | 308 nM
27 | CCCCN(CCCC)S(=O)(=O)c1ccc(NC(=O)c2ccco2)cc1 | 1420 nM | > 65700 nM | 637 nM
28 | Oc1ccc(Nc2nc(N3CCCC3)c3ccccc3n2)cc1 | 584 nM | > 10000 nM | 926 nM
29 | C[n+]1cc(-c2ccc3cccc([N+](=O)[O-])c3n2)cc2ccccc21 | 364 nM | > 10000 nM | 450 nM
30 | Cc1ccc(Nc2nc(NN=Cc3ccc(-c4ccc([N+](=O)[O-])cc4)o3)nc(N3CCOCC3)n2)cc1Cl | > 598 nM | > 10000 nM | 503 nM
31 | CC(CNC(=O)c1ccccc1)C(=O)OCC(=O)[C@@]12OC(C)(C)O[C@@H]1CC1C3CCC4=CC(=O)C=C[C@]4(C)[C@@]3(F)[C@@H](O)C[C@@]12C (some centres undefined) | 165 nM | 8220 nM | 159 nM
32 | COc1cc(C(=O)OCCC2CCC[N+]3(C)CCCCC23)cc(OC)c1OC (centres undefined) | > 12500 nM | > 100000 nM | 1340 nM
33 | CSC1=NC(C)(C)CC2(CC(c3ccc(C)cc3)c3cc(Cl)c(O)cc3O2)N1 (centres undefined) | 993 nM | > 10000 nM | 602 nM
